# Tests used:
# Assay in all cases: relative viability (nuclei count vs DMSO), 5 days (fraction); higher = more cells survive
# CAP-232 + Pictilisib = compound: C[C@H]([C@@H](C(=O)N)NC(=O)[C@@H]1CSSC[C@@H](C(=O)N[C@H](C(=O)N[C@@H](C(=O)N[C@H](C(=O)N1)CCCCN)CC2=CNC3=CC=CC=C32)CC4=CC=C(C=C4)O)NC(=O)[C@@H](CC5=CC=CC=C5)N)O [CAP-232] + CS(=O)(=O)N1CCN(Cc2cc3nc(-c4cccc5[nH]ncc45)nc(N4CCOCC4)c3s2)CC1 [Pictilisib] (partner 1 µM)
# In short: (§1)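 Each reported value is a median over duplicate plates. It expresses relative viability: treated-well nuclei count divided by vehicle-well nuclei count. Lung cancer cell lines in 1536-well plates were dosed by pin tool a day after seeding, alone with one drug or with a fixed anchor-drug dose plus five library-drug doses (not always all listed) in √10 steps, and nuclei were counted after 5 days.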
# CAP-232 + Lapatinib = compound: C[C@H]([C@@H](C(=O)N)NC(=O)[C@@H]1CSSC[C@@H](C(=O)N[C@H](C(=O)N[C@@H](C(=O)N[C@H](C(=O)N1)CCCCN)CC2=CNC3=CC=CC=C32)CC4=CC=C(C=C4)O)NC(=O)[C@@H](CC5=CC=CC=C5)N)O [CAP-232] + CS(=O)(=O)CCNCc1ccc(-c2ccc3ncnc(Nc4ccc(OCc5cccc(F)c5)c(Cl)c4)c3c2)o1 [Lapatinib] (partner 2 µM)
# In short: as §1
# CAP-232 + Linsitinib = compound: C[C@H]([C@@H](C(=O)N)NC(=O)[C@@H]1CSSC[C@@H](C(=O)N[C@H](C(=O)N[C@@H](C(=O)N[C@H](C(=O)N1)CCCCN)CC2=CNC3=CC=CC=C32)CC4=CC=C(C=C4)O)NC(=O)[C@@H](CC5=CC=CC=C5)N)O [CAP-232] + C[C@]1(O)C[C@@H](c2nc(-c3ccc4ccc(-c5ccccc5)nc4c3)c3c(N)nccn32)C1 [Linsitinib] (partner 1 µM)
# In short: as §1
# CAP-232 + Crizotinib = compound: C[C@H]([C@@H](C(=O)N)NC(=O)[C@@H]1CSSC[C@@H](C(=O)N[C@H](C(=O)N[C@@H](C(=O)N[C@H](C(=O)N1)CCCCN)CC2=CNC3=CC=CC=C32)CC4=CC=C(C=C4)O)NC(=O)[C@@H](CC5=CC=CC=C5)N)O [CAP-232] + C[C@@H](Oc1cc(-c2cnn(C3CCNCC3)c2)cnc1N)c1c(Cl)ccc(F)c1Cl [Crizotinib] (partner 1 µM)
# In short: as §1
# CAP-232 + Navitoclax = compound: C[C@H]([C@@H](C(=O)N)NC(=O)[C@@H]1CSSC[C@@H](C(=O)N[C@H](C(=O)N[C@@H](C(=O)N[C@H](C(=O)N1)CCCCN)CC2=CNC3=CC=CC=C32)CC4=CC=C(C=C4)O)NC(=O)[C@@H](CC5=CC=CC=C5)N)O [CAP-232] + CC1(C)CCC(c2ccc(Cl)cc2)=C(CN2CCN(c3ccc(C(=O)NS(=O)(=O)c4ccc(N[C@H](CCN5CCOCC5)CSc5ccccc5)c(S(=O)(=O)C(F)(F)F)c4)cc3)CC2)C1 [Navitoclax] (partner 0.5 µM)
# In short: as §1
# CAP-232 + Alpelisib = compound: C[C@H]([C@@H](C(=O)N)NC(=O)[C@@H]1CSSC[C@@H](C(=O)N[C@H](C(=O)N[C@@H](C(=O)N[C@H](C(=O)N1)CCCCN)CC2=CNC3=CC=CC=C32)CC4=CC=C(C=C4)O)NC(=O)[C@@H](CC5=CC=CC=C5)N)O [CAP-232] + Cc1nc(NC(=O)N2CCC[C@H]2C(N)=O)sc1-c1ccnc(C(C)(C)C(F)(F)F)c1 [Alpelisib] (partner 2 µM)
# In short: as §1
# CAP-232 + Bortezomib = compound: C[C@H]([C@@H](C(=O)N)NC(=O)[C@@H]1CSSC[C@@H](C(=O)N[C@H](C(=O)N[C@@H](C(=O)N[C@H](C(=O)N1)CCCCN)CC2=CNC3=CC=CC=C32)CC4=CC=C(C=C4)O)NC(=O)[C@@H](CC5=CC=CC=C5)N)O [CAP-232] + CC(C)C[C@H](NC(=O)[C@H](Cc1ccccc1)NC(=O)c1cnccn1)B(O)O [Bortezomib] (partner 0.002 µM)
# In short: as §1
# CAP-232 + Foretinib = compound: C[C@H]([C@@H](C(=O)N)NC(=O)[C@@H]1CSSC[C@@H](C(=O)N[C@H](C(=O)N[C@@H](C(=O)N[C@H](C(=O)N1)CCCCN)CC2=CNC3=CC=CC=C32)CC4=CC=C(C=C4)O)NC(=O)[C@@H](CC5=CC=CC=C5)N)O [CAP-232] + COc1cc2c(Oc3ccc(NC(=O)C4(C(=O)Nc5ccc(F)cc5)CC4)cc3F)ccnc2cc1OCCCN1CCOCC1 [Foretinib] (partner 0.25 µM)
# In short: as §1
# CAP-232 + Olaparib = compound: C[C@H]([C@@H](C(=O)N)NC(=O)[C@@H]1CSSC[C@@H](C(=O)N[C@H](C(=O)N[C@@H](C(=O)N[C@H](C(=O)N1)CCCCN)CC2=CNC3=CC=CC=C32)CC4=CC=C(C=C4)O)NC(=O)[C@@H](CC5=CC=CC=C5)N)O [CAP-232] + O=C(c1cc(Cc2n[nH]c(=O)c3ccccc23)ccc1F)N1CCN(C(=O)C2CC2)CC1 [Olaparib] (partner 8 µM)
# In short: as §1
# CAP-232 = compound: C[C@H]([C@@H](C(=O)N)NC(=O)[C@@H]1CSSC[C@@H](C(=O)N[C@H](C(=O)N[C@@H](C(=O)N[C@H](C(=O)N1)CCCCN)CC2=CNC3=CC=CC=C32)CC4=CC=C(C=C4)O)NC(=O)[C@@H](CC5=CC=CC=C5)N)O [CAP-232]
# In short: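 Viability is treated-well nuclei as a fraction of vehicle-well nuclei, reported as the median across plates. Before counting, lung cancer cell lines were kept overnight at 37 °C in 1536-well plates, pinned with five √10-spaced library-drug doses on vehicle-anchored plates, and left 5 days without medium change, then fixed, permeabilised and Hoechst-stained in one step, imaged at 4× and counted by MetaXpress. A plate passed only if control CV was below 25% and at least one doubling occurred.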
Cell Line,relative viability (CAP-232 + Pictilisib; first compound 0.4 µM),relative viability (CAP-232 + Pictilisib; first compound 1.265 µM),relative viability (CAP-232 + Pictilisib; first compound 4 µM),relative viability (CAP-232 + Pictilisib; first compound 12.65 µM),relative viability (CAP-232 + Lapatinib; first compound 0.4 µM),relative viability (CAP-232 + Lapatinib; first compound 1.265 µM),relative viability (CAP-232 + Lapatinib; first compound 4 µM),relative viability (CAP-232 + Lapatinib; first compound 12.65 µM),relative viability (CAP-232 + Linsitinib; first compound 0.4 µM),relative viability (CAP-232 + Linsitinib; first compound 1.265 µM),relative viability (CAP-232 + Linsitinib; first compound 4 µM),relative viability (CAP-232 + Linsitinib; first compound 12.65 µM),relative viability (CAP-232 + Crizotinib; first compound 0.4 µM),relative viability (CAP-232 + Crizotinib; first compound 1.265 µM),relative viability (CAP-232 + Crizotinib; first compound 4 µM),relative viability (CAP-232 + Crizotinib; first compound 12.65 µM),relative viability (CAP-232 + Navitoclax; first compound 0.4 µM),relative viability (CAP-232 + Navitoclax; first compound 1.265 µM),relative viability (CAP-232 + Navitoclax; first compound 4 µM),relative viability (CAP-232 + Navitoclax; first compound 12.65 µM),relative viability (CAP-232 + Alpelisib; first compound 0.4 µM),relative viability (CAP-232 + Alpelisib; first compound 1.265 µM),relative viability (CAP-232 + Alpelisib; first compound 4 µM),relative viability (CAP-232 + Alpelisib; first compound 12.65 µM),relative viability (CAP-232 + Bortezomib; first compound 0.4 µM),relative viability (CAP-232 + Bortezomib; first compound 1.265 µM),relative viability (CAP-232 + Bortezomib; first compound 4 µM),relative viability (CAP-232 + Bortezomib; first compound 12.65 µM),relative viability (CAP-232 + Foretinib; first compound 0.4 µM),relative viability (CAP-232 + Foretinib; first compound 1.265 µM),relative viability (CAP-232 + Foretinib; first compound 4 µM),relative viability (CAP-232 + Foretinib; first compound 12.65 µM),relative viability (CAP-232 + Olaparib; first compound 0.4 µM),relative viability (CAP-232 + Olaparib; first compound 1.265 µM),relative viability (CAP-232 + Olaparib; first compound 4 µM),relative viability (CAP-232 + Olaparib; first compound 12.65 µM),relative viability (CAP-232; 0.4 µM),relative viability (CAP-232; 1.265 µM),relative viability (CAP-232; 4 µM),relative viability (CAP-232; 12.65 µM)
Calu-6,0.956,0.889,0.945,0.585,1.26,1.03,1.15,0.664,1.05,1.01,0.929,0.988,0.961,0.842,0.988,0.555,0.963,0.941,0.831,0.446,1.09,1.08,1,0.654,1.16,1.04,0.947,0.653,0.867,1.02,0.995,0.561,0.616,0.542,0.623,0.394,1.12,1.02,1.15,0.74
EBC-1,0.363,0.314,0.391,0.286,0.181,0.228,0.194,0.159,1.04,0.944,0.904,0.926,0.194,0.169,0.178,0.11,0.315,0.328,0.363,0.304,0.876,0.819,0.846,0.76,0.512,0.497,0.567,0.475,0.0884,0.129,0.101,0.0802,0.773,0.686,0.698,0.662,1.05,0.974,1.13,0.927

# Source: the supplement of paper PMC10307832
